Active and inactive are the calls of the source. The calls are words filed in the database; no cut-off is given here.
Columns and labels:
RAW264.7 [1] = test: Antiinflammatory activity in mouse RAW264.7 cells assessed as inhibition of LPS-induced nuclear translocation of NF-kappaB p65 preincubated with compound for 1 hrs followed by LPS stimulation and measured after 24 hrs by DAPI staining based immunofluorescence analysis; format: functional, cell-based; settings: dose 5-20 µM, time 25.0 hrs
HL-60 [2] = test: Induction of cell cycle arrest in human HL-60 cells assessed as S phase cells at 7 uM incubated for 48 hrs (reference value: 32.3%); format: functional
RAW264.7 [3] = test: Antiinflammatory activity in LPS-induced mouse RAW264.7 cells assessed as reduction in IL-1beta mRNA expression at 5 to 20 uM incubated for 24 hrs by qRT-PCR analysis; format: functional, cell-based; settings: dose 5-20 µM
HL-60 [4] = test: Induction of apoptosis in human HL-60 cells assessed as early apoptotic cells at 7 uM incubated for 48 hrs by Annexin V-FITC/PI staining based flow cytometric analysis (reference value: 11.0%); format: functional
HL-60 [5] = test: Induction of apoptosis in human HL-60 cells assessed as viable cells at 7 uM incubated for 48 hrs by Annexin V-FITC/PI staining based flow cytometric analysis (reference value: 84.1%); format: functional; settings: read-out: Activity
HL-60 [6] = test: Induction of apoptosis in human HL-60 cells assessed as viable cells at 14 uM incubated for 48 hrs by Annexin V-FITC/PI staining based flow cytometric analysis (reference value: 84.1%); format: functional; settings: read-out: Activity
HL-60 [7] = test: Induction of apoptosis in human HL-60 cells assessed as early apoptotic cells at 14 uM incubated for 48 hrs by Annexin V-FITC/PI staining based flow cytometric analysis (reference value: 11.0%); format: functional
HL-60 [8] = test: Induction of cell cycle arrest in human HL-60 cells assessed as G2 phase cells at 7 uM incubated for 48 hrs (reference value: 23.7%); format: functional
HL-60 [9] = test: Induction of cell cycle arrest in human HL-60 cells assessed as accumulation of G1 phase cells at 7 uM incubated for 48 hrs (reference value: 42.0%); format: functional
HL-60 [10] = test: Induction of apoptosis in human HL-60 cells assessed as late apoptotic cells at 7 uM incubated for 48 hrs by Annexin V-FITC/PI staining based flow cytometric analysis (reference value: 4.53%); format: functional
HL-60 [11] = test: Induction of apoptosis in human HL-60 cells assessed as necrotic cells at 7 uM incubated for 48 hrs by Annexin V-FITC/PI staining based flow cytometric analysis (reference value: 0.39%); format: functional
HL-60 [12] = test: Cytotoxicity against human HL-60 cells assessed as inhibition of cell growth incubated for 48 hrs by CCK8 assay; format: functional, cell-based; settings: HL-60, 48 h
RAW264.7 [13] = test: Antiinflammatory activity in LPS-induced mouse RAW264.7 cells assessed as reduction in COX-2 protein expression by Western blot analysis; format: functional, cell-based; settings: dose 5-20 µM
RAW264.7 [14] = test: Antiinflammatory activity in mouse RAW264.7 cells assessed as inhibition of LPS-induced NO production preincubated with compound for 1 hrs followed by LPS stimulation and measured after 24 hrs by Griess reagent based method; format: functional, cell-based
RAW264.7 [15] = test: Antiinflammatory activity in LPS-induced mouse RAW264.7 cells assessed as reduction in iNOS mRNA expression at 5 to 20 uM incubated for 24 hrs by qRT-PCR analysis; format: functional, cell-based; settings: dose 5-20 µM
HL-60 [16] = test: Induction of cell cycle arrest in human HL-60 cells assessed as accumulation of G1 phase cells at 14 uM incubated for 48 hrs (reference value: 42.0%); format: functional
HL-60 [17] = test: Induction of apoptosis in human HL-60 cells assessed as necrotic cells at 14 uM incubated for 48 hrs by Annexin V-FITC/PI staining based flow cytometric analysis (reference value: 0.39%); format: functional
HL-60 [18] = test: Induction of apoptosis in human HL-60 cells assessed as late apoptotic cells at 14 uM incubated for 48 hrs by Annexin V-FITC/PI staining based flow cytometric analysis (reference value: 4.53%); format: functional
SU-DHL-2 = test: Cytotoxicity against human SUDHL2 cells assessed as inhibition of cell growth incubated for 48 hrs by CCK8 assay; format: functional, cell-based; settings: SU-DHL-2, 48 h
HL-60 [19] = test: Induction of cell cycle arrest in human HL-60 cells assessed as S phase cells at 14 uM incubated for 48 hrs (reference value: 32.3%); format: functional
RAW264.7 [20] = test: Antiinflammatory activity in LPS-induced mouse RAW264.7 cells assessed as reduction in COX2 mRNA expression at 5 to 20 uM incubated for 24 hrs by qRT-PCR analysis; format: functional, cell-based; settings: dose 5-20 µM
HL-60 [21] = test: Induction of cell cycle arrest in human HL-60 cells assessed as G2 phase cells at 14 uM incubated for 48 hrs (reference value: 23.7%); format: functional

IC50 (RAW264.7 [14]): 19.3 µM
Structure (SMILES): Cc1cc2c(c3c1C[C@@H](O)CC3)CC[C@@]1(C)[C@H]2CCC(=O)[C@@]1(C)/C=C/[C@H](C)C(C)C
Activity (RAW264.7 [1]): Dose-Dependent Effect
Activity (HL-60 [2]): 24.7%
Activity (RAW264.7 [3]): Active
Activity (HL-60 [4]): 12.1%
viability at 7 µM (HL-60 [5]): 76.3%
viability at 14 µM (HL-60 [6]): 21.3%
Activity (HL-60 [7]): 21.9%
Activity (HL-60 [8]): 16.1%
Activity (HL-60 [9]): 53.9%
Activity (HL-60 [10]): 11%
Activity (HL-60 [11]): 0.57%
IC50 (HL-60 [12]): 8.7 µM
Activity (RAW264.7 [13]): Dose-Dependent Effect
Activity (RAW264.7 [15]): Active
Activity (HL-60 [16]): 62.3%
Activity (HL-60 [17]): 2.95%
Activity (HL-60 [18]): 53.8%
IC50 (SU-DHL-2): 6.9 µM
Activity (HL-60 [19]): 24.9%
Activity (RAW264.7 [20]): Active
Activity (HL-60 [21]): 9.7%
